The record followed here is patent US11591336B2 (Relay Therapeutics, Inc., priority 2017, dated 2023).

Structures are written as SMILES. Where a name gives a salt, the structure may show the parent alone.

The experiment deals with SHP2 (Homo sapiens (Human), UniProt Q06124). As to the kind of experiment: SHP2 Allosteric Inhibition Assay (DiFMUP prompt fluorescence). Format: biochemical. To be noted: 0.25 nM SHP2 activated with 0.5 μM peptide IRS1_pY1172(dPEG8)pY1222; substrate DiFMUP 100 μM; 25° C.
Chain of SHP2 (Q06124 whole entry): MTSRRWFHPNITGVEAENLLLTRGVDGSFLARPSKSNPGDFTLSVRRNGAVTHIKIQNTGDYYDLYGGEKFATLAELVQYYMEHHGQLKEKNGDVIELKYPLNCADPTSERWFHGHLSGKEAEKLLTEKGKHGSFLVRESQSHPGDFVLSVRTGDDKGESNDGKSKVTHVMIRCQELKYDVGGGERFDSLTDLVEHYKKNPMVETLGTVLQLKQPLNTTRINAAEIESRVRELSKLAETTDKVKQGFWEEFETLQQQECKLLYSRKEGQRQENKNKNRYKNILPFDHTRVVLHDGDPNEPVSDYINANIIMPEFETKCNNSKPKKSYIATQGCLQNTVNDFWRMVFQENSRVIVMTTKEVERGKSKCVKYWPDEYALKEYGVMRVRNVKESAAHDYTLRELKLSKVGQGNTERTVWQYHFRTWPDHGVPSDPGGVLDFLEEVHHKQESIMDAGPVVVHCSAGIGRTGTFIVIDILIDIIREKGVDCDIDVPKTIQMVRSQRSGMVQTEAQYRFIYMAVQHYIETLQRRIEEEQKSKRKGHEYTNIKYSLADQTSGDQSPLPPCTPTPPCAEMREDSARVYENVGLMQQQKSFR
Turning to `C[C@@H]1OCC2(CCN(c3cnc4c(N5CCCc6nc(-c7cnn(CCO)c7)ccc65)n[nH]c4n3)CC2)[C@@H]1N` [Compound 351, 2-[4-(5-{6-[(3S,4S)-4-amino-3-methyl-2-oxa-8-azaspiro[4.5]decan-8-yl]-1H-pyrazolo[3,4-b]pyrazin-3-yl}-5,6,7,8-tetrahydro-1,5-naphthyridin-2-yl)-1H-pyrazol-1-yl]ethan-1-ol], the half-maximal inhibitory concentration (IC50) (as a rule, the concentration that gives 50% inhibition) is less than 1 µM.
To `C[C@@H]1OCC2(CCN(c3cnc4c(N5CCc6cnccc6C5)n[nH]c4n3)CC2)[C@@H]1N` [Compound 291] belongs less than 1 µM.
`CC1(N)CCN(c2cnc3c(N4CCCc5cc(C(N)=O)ccc54)n[nH]c3n2)CC1` [Compound 54, 1-(6-(4-amino-4-methylpiperidin-1-yl)-1H-pyrazolo[3,4-b]pyrazin-3-yl)-1,2,3,4-tetrahydroquinoline-6-carboxamide] registered a 50% inhibitory concentration (IC50) of less than 1 µM.
To `C[C@@H]1OCC2(CCN(c3cnc4c(N5CCN(S(C)(=O)=O)c6ccccc65)n[nH]c4n3)CC2)[C@@H]1N` [Compound 325] belongs less than 1 µM; to `C[C@@H]1OCC2(CCN(c3cnc4c(N5CC[C@H](C)c6ncc(F)cc65)n[nH]c4n3)CC2)[C@@H]1N` (single isomer, unassigned) [Compound 263, hydrochloride], less than 1 µM.
Compound `C[C@@H]1OCC2(CCN(c3cnc4c(N5CCCc6nc(-c7cc[nH]n7)ccc65)n[nH]c4n3)CC2)[C@@H]1N` [Compound 254, (3S,4S)-8-(3-(6-(1H-pyrazol-3-yl)-3,4-dihydro-1,5-naphthyridin-1(2H)-yl)-1H-pyrazolo[3,4-b]pyrazin-6-yl)-3-methyl-2-oxa-8-azaspiro[4.5]decan-4-amine] yielded a concentration for half-maximal inhibition (IC50) of less than 1 µM.
To `CC1(CN)CCN(c2cnc3c(N4CCCc5c4ccnc5Cl)n[nH]c3n2)CC1` [Compound 132] belongs less than 1 µM; to `C[C@@H]1OCC2(CCN(c3cnc4c(N5CCCc6nc(-n7cccn7)ccc65)n[nH]c4n3)CC2)[C@@H]1N` [Compound 252], less than 1 µM; to `C[C@@H]1OCC2(CCN(c3cnc4c(N5CCN(C)c6c(-c7cnn(C)c7)cccc65)n[nH]c4n3)CC2)[C@@H]1N` [Compound 440], less than 1 µM.
As to `CNC(=O)c1nccc2c1CCCN2c1n[nH]c2nc(N3CCC4(CC3)CO[C@@H](C)[C@H]4N)cnc12` [Compound 404, 1-{6-[(3S,4S)-4-amino-3-methyl-2-oxa-8-azaspiro[4.5]decan-8-yl]-1H-pyrazolo[3,4-b]pyrazin-3-yl}-N-methyl-1,2,3,4-tetrahydro-1,6-naphthyridine-5-carboxamide], the IC50 was less than 1 µM.
To `C[C@H]1CCN(c2n[nH]c3nc(N4CCC(C)(CN)CC4)cnc23)c2ccc(-c3nnc[nH]3)nc21` [Compound 198, 1-(4-methyl-1-{3-[(4S)-4-methyl-6-(4H-1,2,4-triazol-3-yl)-1,2,3,4-tetrahydro-1,5-naphthyridin-1-yl]-1H-pyrazolo[3,4-b]pyrazin-6-yl}piperidin-4-yl)methanamine] belongs less than 1 µM; to `CC(C)NC(=O)c1ccc2c(n1)[C@@H](C)CCN2c1n[nH]c2nc(N3CCC4(CC3)CO[C@@H](C)[C@H]4N)cnc12` [Compound 446], less than 1 µM.
Turning to `CC1(CN)CCN(c2cnc3c(N4CCCc5cc(-c6ncon6)ccc54)n[nH]c3n2)CC1` [Compound 172, (1-(3-(6-(1,2,4-oxadiazol-3-yl)-3,4-dihydroquinolin-1(2H)-yl)-1H-pyrazolo[3,4-b]pyrazin-6-yl)-4-methylpiperidin-4-yl)methanamine], the IC50 was less than 1 µM.
To `CC1(N)CCN(c2cnc3c(Sc4cccc(Cl)c4Cl)n[nH]c3n2)CC1` [Compound 13, 1-(3-((2,3-dichlorophenyl)thio)-1H-pyrazolo[3,4-b]pyrazin-6-yl)-4-methylpiperidin-4-amine] belongs less than 1 µM; to `CC(C)n1cc(-c2ccc3c(n2)CCCN3c2n[nH]c3nc(N4CCC5(CC4)CO[C@@H](C)[C@H]5N)cnc23)cn1` [Compound 312, (3S,4S)-8-(3-(6-(1-isopropyl-1H-pyrazol-4-yl)-3,4-dihydro-1,5-naphthyridin-1(2H)-yl)-1H-pyrazolo[3,4-b]pyrazin-6-yl)-3-methyl-2-oxa-8-azaspiro[4.5]decan-4-amine], less than 1 µM.
To `CCCn1cc(-c2ccc3c(n2)CCCN3c2n[nH]c3nc(N4CCC5(CC4)CO[C@@H](C)[C@H]5N)cnc23)cn1` [Compound 311, (3S,4S)-3-methyl-8-{3-[6-(1-propyl-1H-pyrazol-4-yl)-1,2,3,4-tetrahydro-1,5-naphthyridin-1-yl]-1H-pyrazolo[3,4-b]pyrazin-6-yl}-2-oxa-8-azaspiro[4.5]decan-4-amine] belongs less than 1 µM; to `CC1(CN)CCN(c2cnc3c(N4CCCc5c(-c6ccc(F)c(F)c6)cccc54)n[nH]c3n2)CC1` [Compound 70], less than 1 µM.
With `CC1c2ccccc2CCN1c1n[nH]c2nc(N3CCC(C)(CN)CC3)cnc12` (stereo not drawn) [Compound 169], the half-maximal inhibitory concentration (IC50) is less than 1 µM.
To `C[C@@H]1OCC2(CCN(c3cnc4c(N5CCCc6c5ccnc6S(C)(=O)=O)n[nH]c4n3)CC2)[C@@H]1N` [Compound 416] belongs less than 1 µM; to `Cn1cc(-c2ccc3c(n2)CCCN3c2n[nH]c3nc(N4CCC(C)(N)CC4)cnc23)cn1` [Compound 62], less than 1 µM.
To `CC(C)NC(=O)c1ccc2c(n1)[C@H](C)CCN2c1n[nH]c2nc(N3CCC4(CC3)CO[C@@H](C)[C@H]4N)cnc12` [Compound 438] belongs less than 1 µM; to `CNC(=O)c1ccc2c(n1)[C@@H](C)CCN2c1n[nH]c2nc(N3CCC4(CC3)CO[C@@H](C)[C@H]4N)cnc12` [Compound 362, (8S)-5-{6-[(3S,4S)-4-amino-3-methyl-2-oxa-8-azaspiro[4.5]decan-8-yl]-1H-pyrazolo[3,4-b]pyrazin-3-yl}-N,8-dimethyl-5,6,7,8-tetrahydro-1,5-naphthyridine-2-carboxamide], less than 1 µM.
To `CNC(=O)N1CCN(c2n[nH]c3nc(N4CCC5(CC4)CO[C@@H](C)[C@H]5N)cnc23)c2cccnc21` [Compound 331, 1-{6-[(3S,4S)-4-amino-3-methyl-2-oxa-8-azaspiro[4.5]decan-8-yl]-1H-pyrazolo[3,4-b]pyrazin-3-yl}-N-methyl-1H,2H,3H,4H-pyrido[2,3-b]pyrazine-4-carboxamide] belongs less than 1 µM; to `C[C@@H]1OCC2(CCN(c3cnc4c(N5CCCc6c([C@H]7CC(=O)N(C)C7)cccc65)n[nH]c4n3)CC2)[C@@H]1N` [Compound 521], less than 1 µM.
On to `C[C@@H]1OCC2(CCN(c3cnc4c(N5CCCc6nc(-c7ncco7)ccc65)n[nH]c4n3)CC2)[C@@H]1N` [Compound 295, (3S,4S)-3-methyl-8-(3-(6-(oxazol-2-yl)-3,4-dihydro-1,5-naphthyridin-1(2H)-yl)-1H-pyrazolo[3,4-b]pyrazin-6-yl)-2-oxa-8-azaspiro[4.5]decan-4-amine], for which the IC50 was less than 1 µM.
To `C[C@@H]1OCC2(CCN(c3cnc4c(N5CCN(C)c6cnccc65)n[nH]c4n3)CC2)[C@@H]1N` [Compound 276] belongs less than 1 µM; to `C[C@@H]1OCC2(CCN(c3cnc4c(N5CCOc6ccccc6C5)n[nH]c4n3)CC2)[C@@H]1N` [Compound 269], less than 1 µM.
`C[C@@H]1CCN(c2n[nH]c3nc(N4CCC5(CC4)CO[C@@H](C)[C@H]5N)cnc23)c2ccc(-c3ncc[nH]3)nc21` (relative stereo) [Compound 448, (3S,4S)-8-{3-[(4R*)-6-(1H-imidazol-2-yl)-4-methyl-1,2,3,4-tetrahydro-1,5-naphthyridin-1-yl]-1H-pyrazolo[3,4-b]pyrazin-6-yl)-3-methyl-2-oxa-8-azaspiro[4.5]decan-4-amine hydrochloride] returned a concentration for half-maximal inhibition (IC50) of less than 1 µM.
To `C[C@@H]1OCC2(CCN(c3cnc4c(N5CCNc6ncccc65)n[nH]c4n3)CC2)[C@@H]1N` [Compound 247] belongs less than 1 µM.
To `CC1(CN)CCN(c2cnc3c(Oc4cc(N)nc(Cl)c4Cl)n[nH]c3n2)CC1` [Compound 518, 4-((6-(4-(aminomethyl)-4-methylpiperidin-1-yl)-1H-pyrazolo[3,4-b]pyrazin-3-yl)oxy)-5,6-dichloropyridin-2-amine hydrochloride] belongs less than 1 µM; to `NC[C@H]1CCN(c2cnc3c(N4CCCc5ncccc54)n[nH]c3n2)[C@@H](Cc2ccccc2)C1` (racemic) [Compound 159], 1 to 10 µM.
To `C[C@@H]1OCC2(CCN(c3cnc4c(N5CCCc6c5cccc6P(C)(C)=O)n[nH]c4n3)CC2)[C@@H]1N` [Compound 369] belongs less than 1 µM; to `CCC1(C)CCN(c2cnc3c(N4CCCc5ncccc54)n[nH]c3n2)CC1` [Compound 153], not below 10 µM.
The compound `CC1(CN)CCN(c2cnc3c(N4CCCc5cc(C#N)ccc54)n[nH]c3n2)CC1` [Compound 77] came in with an IC50 of less than 1 µM.
To `C[C@@H]1OCC2(CCN(c3cnc4c(N5CCCc6c(CS(C)(=O)=O)cccc65)n[nH]c4n3)CC2)[C@@H]1N` [Compound 455] belongs less than 1 µM; to `N[C@H]1COCC12CCN(c1cnc3c(N4CCCc5ncccc54)n[nH]c3n1)CC2` [Compound 213], less than 1 µM; to `C[C@@H]1OCC2(CCN(c3cnc4c(N5CCCc6nc(-c7cn[nH]c7)ccc65)n[nH]c4n3)CC2)[C@@H]1N` [Compound 259], less than 1 µM.
In the case of `CNC(=O)N1CCN(c2n[nH]c3nc(N4CCC5(CC4)CO[C@@H](C)[C@H]5N)cnc23)c2ncccc21` [Compound 313, 4-{6-[(3S,4S)-4-amino-3-methyl-2-oxa-8-azaspiro[4.5]decan-8-yl]-1H-pyrazolo[3,4-b]pyrazin-3-yl}-N-methyl-1H,2H,3H,4H-pyrido[2,3-b]pyrazine-1-carboxamide], the IC50 is 1 to 10 µM.
To `CC1(N)CCN(c2cnc3c(Sc4cccnc4C(=O)O)n[nH]c3n2)CC1` [Compound 482] belongs less than 1 µM.
To `C[C@@H]1OCC2(CCN(c3cnc4c(N5CCCc6c5ccc(C#N)c6[C@@H]5CCCO5)n[nH]c4n3)CC2)[C@@H]1N` [Compound 522] belongs less than 1 µM; to `Cc1c(C#N)ccc2c1CCCN2c1n[nH]c2nc(N3CCC(C)(CN)CC3)cnc12` [Compound 120], less than 1 µM; to `C[C@@H]1OCC2(CCN(c3cnc4c(N5CCCc6c(N=S(C)(C)=O)cccc65)n[nH]c4n3)CC2)[C@@H]1N` [Compound 418], less than 1 µM.
